Measured values published in patent US20090247495A1, “CU[…] AND USES THEREOF” (priority 2007, published 2009).
Values after ≈ are worked out from the molar mass of the structure shown.

Key:
[1] = test system: colon cancer cell line (HT29); assay: MTT cell cytotoxicity assay, HT29; assay type: cell-based, human; conditions: Homo sapiens, HT-29; 48 hours; read-out: IC50
Procedure: Three human cancer cell lines (HepG2(liver), HT29(colon) and MCF-7(breast)) were purchased from American Type Culture Collection (ATCC, Manassas, Va., USA). The cells were cultured in RPMI 1640 medium supplemented with 5% (v/v) fetal bovine serum (FBS) and 100 units/ml penicillin and streptomycin (Invitrogen Life Technologies) in a humidified 5% CO2 atmosphere at 37° C.
(§1) The cytotoxic effect of CuB and CuD on these three cancer cell lines were determined using MTT (3-[4,5-dimethylthiazol-2-yl]-2,5-diphenyl tetrazolium bromide) labeled cell cytotoxicity assay. A total of 1×10^4 cells were seeded into a 96-well plate for 24 hours prior to cucurbitacin B (CuB) or cucurbitacin D (CuD) treatment. They were then treated with different dosages of CuB/CuD for 48 hours. After the treatment, 20 μl of MTT (5 mg/ml) was added to each well and incubated for 4 hrs. Then the medium was discarded and 100 μl of dimethyl sulfoxide was added. The absorbance at 570 nm was then measured by using FLUOstar OPTIMA equipment (BMG, LABTECH GmbH, Germany). The percentage of inhibition against different dosages of CuB/CuD were plotted using the Prism software and the 50% inhibition concentration (IC50) were obtained.

Panc 02.13 = assay: MTT cell cytotoxicity assay, Panc 02.13; assay type: cell-based; conditions: Homo sapiens, 48 hours
Procedure: (§2) Three human pancreatic cancer cell lines (Panc-1, Panc 02.13, Panc 10.05) were purchased from American Type Culture Collection (ATCC, Manassas, Va., USA). Panc 02.13 and Panc 10.05 were grown in RPMI 1640 medium supplemented with 15% FBS, 4.5 g/L glucose, 10 mM HEPES, and 1.0 mM sodium pyruvate and 10 Units/ml human insulin; while PANC-1 was grown in Dulbecco's modified Eagle's medium supplemented with 10% FBS. They were maintained in a humidified 5% CO2 atmosphere at 37° C. and the culture medium was changed once in 2 days.
as §1, with “CuB” for “CuB and CuD”, “(CuB)” for “(CuB) or cucurbitacin D (CuD)”, “CuB” for “CuB/CuD”, “by” for “by using”, “obtained. […]” for “obtained.”

Panc 10.05 = assay: MTT cell cytotoxicity assay, Panc 10.05; assay type: cell-based; conditions: Homo sapiens, Panc1005, 48 hours
Procedure: as §2
as §1, with “CuB” for “CuB and CuD”, “(CuB)” for “(CuB) or cucurbitacin D (CuD)”, “CuB” for “CuB/CuD”, “by” for “by using”, “obtained. […]” for “obtained.”

[2] = test system: HL60 cells and U937 cells; assay: Cytocentrifuged, fixed and stained cells (multinucleation); assay type: cell-based, human; conditions: 1×10^−8 M or 5×10^−8 M, 96 hours
Procedure: HL60 cells, as depicted in FIGS. 13A to 13C, and U937 cells, as depicted in FIGS. 13D to 13F, were cytocentrifuged, fixed and stained. Cells were treated with either 1×10^−8 M (FIGS. 13B, 13C and 13E) or 5×10^−8 M (FIG. 13F) cucurbitacin B for 96 hours, and compared with diluent treated control cells (FIGS. 13A and […]).

HL60 and U937 cells = assay: Cell differentiation: CD11b expression by flow cytometry; assay type: cell-based, human; conditions: 96-hour treatment
Procedure: HL60 and U937 cells were incubated with vary doses of cucurbitacin B for 96 hours at 37° C. For analysis of cell differentiaion, cells were then incubated with either R-phycoerythrin-conjugated murine anti-human CD11b antibody (DAKO, Carpinteria, Calif.). For analysis of cell cycle, cells were washed and fixed with chilled methanol, and incubated on ice for 30 minutes prior to staining with propidium iodide. All analyses were performed by flow cytometry.
Following a 96-hour treatment with cucurbitacin B, HL60 (FIG. 14A) and U937 (FIG. 14B) cells were incubated with RPE-conjugated CD11b-specific antibody (dark grey) or RPE-conjugated IgGI control antibody (light grey), and flow cytometry was performed.

[3] = test system: human MDA-MB-231 breast cancer cells; assay: Orthotopic human breast cancer model in nude mice; assay type: in vivo
Procedure: (§3) One million human MDA-MB-231 breast cancer cells/Matrigel (vol 1:1) were inoculated isotopically into the breasts of nude mice. The mice received intraperitoneal injections of 1 mg/ml of cucurbitacin B 3 times a week starting on the day after inoculation of the cells. The longitudinal and the transverse diameter, and the height were measured once a week. The volume was calculated by multiplying these elements, and the relative tumor size was determined by dividing the product by the initial volume. After 6 weeks, the mice were sacrificed to weigh the dissected tumors. At that moment, blood was taken for analysis, where organs and tumors were inspected, dissected, fixed and stained with hematoxylin-eosin and/or Ki-67. Data were expressed as mean±SD. Statistical analysis was performed by student's t test.
(§4) Six weeks after i.p. treatment with either vehicle or cucurbitacin B 1 mg/kg three times a week, mice were euthanized and tumors were observed and weighed. Results represented the mean and SD of 9 treated and 9 control tumors. Statistical analysis was performed by student's t test.

[4] = Gross and microscopic examination of organs of treated mice; assay type: in vivo, nude mice; conditions: i.p. 1 mg/kg three times a week, six weeks
Procedure: as §3, §4

[5] = test system: HepG2-resistant (HepG2-R); assay: Hollow fiber assay, HepG2-resistant; assay type: in vivo, nude mice; conditions: up to 14 days
Procedure: The hollow fiber assay (HFA) was developed by the NCI as a high-throughput, preliminary in vivo screening assay for the evaluation of anti-cancer agents. Human liver cancer cell lines HepG2 and HepG2-resistant (HepG2-R) were in vitro cultured inside hollow fibers for a short term (48 hours), followed by in vivo implantation at s.c. sites of the nude mice. Mice were treated with negative control (0.5% CMC), positive control (10 mg/kg 5-Fluorouracil) and cucurbitacin B (0.2 mg/kg) for up to 14 days. Then the fibers were excised and analyzed for cell viability by MTT assay. The efficacies of cucurbitacin B against HepG2 and HepG2-R were expressed as the percentage of the results obtained in the negative control group.

CC(=O)OC(C)(C)/C=C/C(=O)[C@](C)(O)C1[C@H](O)C[C@@]2(C)C3CC=C4C(C[C@H](O)C(=O)C4(C)C)[C@]3(C)C(=O)C[C@]12C (stereo partly shown) [cucurbitacin B] gave an IC50 [1] of 0.31 mg/L (≈ 0.555 µM), a GI50 (Panc 02.13) of 5.13 µM and a GI50 (Panc 10.05) of 5.81 µM. For the same compound, the “cell morphology (multinucleation)” value [2] was “enlarged, multinucleated cells”, the “expression of cell surface marker CD11b” value (HL60 and U937 cells) was “enhanced expression” and the “weight of dissected tumors vs vehicle treated mice” value ([3]; i.p. 1 mg/kg three times a week, six weeks) was “weighed significantly less”. The “growth of MDA-MB-231 tumors compared with control” value ([3]; intraperitoneal 1 mg/kg 3 times a week, 6 weeks) was 50.1%, the “gross and microscopic examination of the liver, spleen, and peritoneum” value [4] was “no significant difference” and the “Cell growth rate compared with the negative control group” value ([5]; 0.2 mg/kg p.o.) was “about 75%”. The “cell growth in hollow fibers” value ([5]; 0.2 mg/kg, i.p., s.c. and p.o.) was “potently inhibited”.
